# Results taken from patent US20190247353A1, “ACNE STRAIN-SELECTIVE ANTIBACTERIAL AGENT” (MOMOTANI JUNTENKAN CO., LTD., priority 2016, published 2019).
# Like-named read-outs stand apart in the source and are kept apart here.
# Legend:
# Format in all cases: cell-based, Propionibacterium acnes
# HL110PA4 strain (RT6) = assay: MIC by broth microdilution method, HL110PA4 strain; conditions: Cutibacterium acnes; Example 6, method as Example 1; read-out: MIC against acne bacterium strain HL110 PA4 strain (RT6)
# Experimental: (§1) The antibacterial activity of a test substance was determined based on the minimum inhibitory concentration (MIC). An MIC was measured according to the broth microdilution method which is the standard method of Japanese Society of Chemotherapy.
# (§2) Each of strain suspensions (5.0×10^4 cfu/mL) was aliquoted in a 96-well round bottom microplate, each of the test substance (fatty acid concentration 10,000 μg/mL) was added at a 1/10 volume to the aliquot and mixed to prepare measurement samples (fatty acid concentration: 1,000 μg/mL). Measurement samples in 2-fold dilution series were prepared using the strain suspension (fatty acid concentration from 0.48 to 1,000 μg/mL). Using a sample containing only the solvent (DMSO) as a control, it was confirmed that the influence of the solvent on the growth of each strain could be neglected.
# (§3) The measurement samples were incubated under an anaerobic condition at 37° C. for 2 days. The presence or absence of a precipitation of test microbial cells after the incubation was examined and the minimum concentration at which the precipitation of microbial cells […] was regarded as the MIC (μg/mL) of the test substance against the acne bacterium strain.
# (§4) The MIC of each of the following test substances was measured substantially in the same manner as in Example 1 (Table 12) except that a suspension of test bacterium strains was prepared using the dominant strain in acne patients (HL005PA1 strain (HM-492^†, RT4 strain), […] (HM-524^†, RT4 strain), HL045PA1 strain (HM-516^†, RT4 strain), or HL043PA2 strain (HM-514^†, RT5 strain)), or the dominant strain in healthy subjects (HL110PA4 strain (HM-555^†, RT6 strain) instead of the dominant strains in acne patients (HL053PA1 strain (RT4 strain) and HL043PA1 strain (RT5 strain)) and the dominant strain in healthy subjects (HL110PA3 strain (RT6 strain) used in Examples 1 to 3.
# HL056PA1 strain (RT4) = assay: MIC by broth microdilution method, HL056PA1 strain; conditions: Cutibacterium acnes, PA1; Example 6, method as Example 1; read-out: MIC against acne bacterium strain HL056 PA1 strain (RT4)
# Experimental: as §1, §2, §3, §4
# [1] = tested on: HL005PA1, HL056PA1, HL045PA1 (RT4) and HL043PA2 (RT5) strains versus HL110PA4 strain (RT6); assay: Strain-selective antibacterial activity against different acne bacterium strains (Example 6); conditions: Example 6 strains
# Source text: (§5) Herein, “acne strain-selective antibacterial activity” or “strain-selective antibacterial activity” means an index indicating better inhibition of growth of a dominant strain in acne patients compared to that of a dominant strain in healthy subjects. It is expressed by the average value of the values (MICRT6/MICRT4, and MICRT6/MICRTS) obtained by dividing the minimum inhibitory concentration (MIC) of an object substance with respect to the dominant strain in healthy subjects (RT6 strain) (MICRT6) respectively by the MIC of the object substance with respect to the dominant strain in acne patients (RT4 strain) (MICRT4), and by the MIC of the object substance with respect to the dominant strain in acne patients (RT5 strain) (MICRT5).
# (§6) The strain-selective antibacterial activity of each test substance (Table 2, right-most column) was evaluated based on the following rating criteria (Table 3). When the strain-selective antibacterial activity is indicated by a numerical range, the rating was based on the minimum value thereof.
# as §4
# HL045PA1 strain (RT4) = assay: MIC by broth microdilution method, HL045PA1 strain; conditions: Cutibacterium acnes, PA1; Example 6, method as Example 1; read-out: MIC against acne bacterium strain HL045 PA1 strain (RT4)
# Experimental: as §1, §2, §3, §4
# HL110PA3 strain (RT6) = assay: MIC by broth microdilution method, HL110PA3 strain; conditions: Cutibacterium acnes, read-out: MIC against acne bacterium strain HL110PA3 strain (RT6)
# Experimental: (§7) An MIC is measured herein according to the broth microdilution method which is the standard method of Japanese Society of Chemotherapy.
# as §1
# (§8) One-loopful of each acne bacterium strain listed in Table 1 was scraped off and inoculated into 5 mL of a GAM broth slant agar medium (pH 7.0, Nissui Pharmaceutical Co., Ltd.).
# (§9) The inoculated acne bacterium strain was precultured at 37° C. in a nitrogen atmosphere (anaerobic condition) for 48 hours. The precultured microbial cells were diluted in a modified GAM broth liquid medium (pH 6.0) to a concentration of 5.0×10^4 cfu/mL (viable cell count per OD660=1 is 2.0×10^9 cfu/mL), to prepare strain suspensions.
# (§10) Each fatty acid (Tokyo Chemical Industry Co., Ltd.) listed in Table 2 was dissolved in dimethylsulfoxide (DMSO) as a solvent such that the concentration became 10,000 μg/mL, and used as a test substance.
# as §2, with “μg/mL).” for “μg/mL). Using a sample containing only the solvent (DMSO) as a control, it was confirmed that the influence of the solvent on the growth of each strain could be neglected.”
# (§11) […] The presence or absence of a precipitation of test microbial cells after the incubation was examined and the minimum concentration at which the precipitation of microbial cells […] was regarded as the MIC (μg/mL) of the test substance against the acne bacterium strain.
# HL053PA1 strain (RT4) = assay: MIC by broth microdilution method, HL053PA1 strain; conditions: for MIC: Cutibacterium acnes, read-out: MIC against acne bacterium strain HL053PA1 strain (RT4)
# Experimental: as §7, §1, §8, §9, §10
# as §2, with “μg/mL).” for “μg/mL). Using a sample containing only the solvent (DMSO) as a control, it was confirmed that the influence of the solvent on the growth of each strain could be neglected.”
# as §11
# HL005PA1 strain (RT4) = assay: MIC by broth microdilution method, HL005PA1 strain; conditions: Cutibacterium acnes, PA1; Example 6, method as Example 1; read-out: MIC against acne bacterium strain HL005 PA1 strain (RT4)
# Experimental: as §1, §2, §3, §4
# [2] = tested on: HL053PA1 strain (RT4) and HL043PA1 strain (RT5) versus HL110PA3 strain (RT6); assay: Strain-selective antibacterial activity (average of MICRT6/MICRT4 and MICRT6/MICRT5); conditions: for Strain-selective antibacterial activity over the tested pH range, in words: tested pH range pH 5 to 7
# Source text: as §5, §6
# [3] = 48 h, pH 6.0 modified GAM broth, anaerobic, 37° C., 2 days (Example 1)
# [4] = 72 h, pH 5.5, estimated from the growth on day 3
# [5] = 96 h, pH 5.0, estimated from the growth on day 4
# [6] = 72 h, pH 5.0, estimated from the growth on day 3
# [7] = pH 5.0, estimated from the growth on day 3
MIC (HL110PA4 strain (RT6)),MIC (HL056PA1 strain (RT4)),MIC (HL045PA1 strain (RT4)),MIC (HL110PA3 strain (RT6); [3]),MIC (HL110PA3 strain (RT6); [4]),MIC (HL110PA3 strain (RT6); [5]),MIC (HL110PA3 strain (RT6); pH 6.5),MIC (HL110PA3 strain (RT6); pH 7.0),MIC (HL053PA1 strain (RT4); [3]),MIC (HL053PA1 strain (RT4); [6]),MIC (HL053PA1 strain (RT4); pH 5.5),MIC (HL053PA1 strain (RT4); pH 6.5),MIC (HL053PA1 strain (RT4); pH 7.0),MIC (HL005PA1 strain (RT4)),SMILES,Strain-selective antibacterial activity [1],Strain-selective antibacterial activity ([2]; pH 5.5),Strain-selective antibacterial activity at each pH ([2]; pH 5.5 (summary Table 10)),Strain-selective antibacterial activity ([2]; pH 6.0 (Example 1)),Strain-selective antibacterial activity at each pH ([2]; pH 6 (summary Table 10)),Strain-selective antibacterial activity ([2]; pH 6.5),other results
> 1000 µg/mL,250 µg/mL,125 µg/mL,> 1000 µg/mL,> 1000 µg/mL,> 1000 µg/mL,> 1000 µg/mL,1000 µg/mL,7.81 µg/mL,> 1000 µg/mL,15.6 µg/mL,31.3 µg/mL,62.5 µg/mL,62.5 µg/mL,"CCCCCCCCCCCCCCCCC(=O)O [Heptadecanoic acid (C17:0), Heptadecanoic acid]",>11,>64,>64,>130,>130,>140,"MIC against acne bacterium strain HL053PA1 strain (RT4) (HL053PA1 strain (RT4); [7]): >1000 µg/mL; Strain-selective antibacterial activity at each pH ([2]; pH 6.5 (summary Table 10)): >140; Strain-selective antibacterial activity ([2]; pH 7.0): 72; Strain-selective antibacterial activity at each pH ([2]; pH 7 (summary Table 10)): 72; Strain-selective antibacterial activity over the tested pH range, in words [2]: maintained a high strain-selective antibacterial activity between pH 5.5 and pH 7"
250 µg/mL,3.9 µg/mL,3.9 µg/mL,250 µg/mL,> 1000 µg/mL,> 1000 µg/mL,250 µg/mL,1000 µg/mL,1.95 µg/mL,7.81 µg/mL,3.9 µg/mL,3.9 µg/mL,3.9 µg/mL,3.9 µg/mL,"CCCCCCCCCCCCCCC(=O)O [Pentadecanoic acid (C15:0), Pentadecanoic acid]",64,>260,>260,130,130,>96,"Strain-selective antibacterial activity ([2]; pH 5.0): >96; Strain-selective antibacterial activity at each pH ([2]; pH 5 (summary Table 10)): >96; Strain-selective antibacterial activity at each pH ([2]; pH 6.5 (summary Table 10)): >96; Strain-selective antibacterial activity ([2]; pH 7.0): 260; Strain-selective antibacterial activity at each pH ([2]; pH 7 (summary Table 10)): 260; Strain-selective antibacterial activity over the tested pH range, in words [2]: maintained a high strain-selective antibacterial activity over the entire pH range tested (pH 5 to 7)"
> 1000 µg/mL,500 µg/mL,250 µg/mL,> 1000 µg/mL,> 1000 µg/mL,> 1000 µg/mL,> 1000 µg/mL,1000 µg/mL,7.81 µg/mL,> 1000 µg/mL,62.5 µg/mL,125 µg/mL,62.5 µg/mL,62.5 µg/mL,"CCCCCCCCCCCCCCCC(=O)O [Palmitic acid (C16:0), Palmitic acid]",>9.5,>16,>16,>130,>130,>130,MIC against acne bacterium strain HL053PA1 strain (RT4) (HL053PA1 strain (RT4); [7]): >1000 µg/mL; Strain-selective antibacterial activity at each pH ([2]; pH 6.5 (summary Table 10)): >130; Strain-selective antibacterial activity ([2]; pH 7.0): 40; Strain-selective antibacterial activity at each pH ([2]; pH 7 (summary Table 10)): 40
250 µg/mL,125 µg/mL,31.3 µg/mL,250 µg/mL,> 1000 µg/mL,> 1000 µg/mL,250 µg/mL,500 µg/mL,15.6 µg/mL,15.6 µg/mL,15.6 µg/mL,125 µg/mL,250 µg/mL,31.3 µg/mL,"CCCCCCCCCCCCCC(=O)O [Myristic acid (C14:0), Myristic acid]",8.5,>64,>64,16,16,>5.0,Strain-selective antibacterial activity ([2]; pH 5.0): >48; Strain-selective antibacterial activity at each pH ([2]; pH 5 (summary Table 10)): >48; Strain-selective antibacterial activity at each pH ([2]; pH 6.5 (summary Table 10)): >5.0; Strain-selective antibacterial activity ([2]; pH 7.0): 2.0; Strain-selective antibacterial activity at each pH ([2]; pH 7 (summary Table 10)): 2.0
